≈ marks a conversion by molar mass, not a printed value. Where “and” joins values, the source holds several entries; their conditions need not be identical. Identical values can stand only once. Like-named read-outs stand apart in the source and are kept apart here.
Tests used:
[1] = tested on: S. aureus; assay: MIC by CLSI broth microdilution, S. aureus isolates; format: cell-based, Staphylococcus aureus; design: key to Susceptibility category (superscript to MIC): R, resistant; S, susceptible; NS, nonsusceptible (resistance not defined); conditions: for MIC: Staphylococcus aureus
Method: (§1) The strains chosen for these studies were clinical isolates from the GSK collection. They were selected on the basis of their desired susceptibility to GSK1322322, resistance phenotype, proven ability to produce robust infections in the rat infection models used in the present study, and previous validation in the models using positive- and negative-control antimicrobials (data on file). MICs were determined using the Clinical and Laboratory Standards Institute-recommended standards for broth microdilution ([24]) and are shown in Table 2. The MIC assay was repeated multiple times for each isolate, and results were consistent (within an accepted variation of ±1 dilution) across assays.

[2] = cited from earlier work; for AUC0–t Human / Cmax Human: estimated from published oral PK data; for AUC from 0 to 12 h postdosing: human
[3] = tested on: S. pneumoniae; assay: Rat model of S. pneumoniae pneumonia with recreated human exposure profiles; format: in vivo; conditions: for Reduction in bacterial burden compared with controls at baseline: LVX- and AZM-resistant S. pneumoniae isolate, recreated human profiles (LVX 500 mg, AZM 1,000/500 mg once daily)
Method: (§2) The respiratory tract infection model was performed as previously described by Hoover et al. with slight modifications ([25]). Briefly, rats were anesthetized with a cocktail containing ketamine hydrochloride (Ketaset; 40 mg/kg) and xylazine (Rompun; 5 mg/kg) via intramuscular injection of 150 μl. The infection was induced by instilling 200 μl of the bacterial suspension in cooled, molten nutrient agar directly into the left lung via nonsurgical intratracheal intubation. As described in detail by Hoover et al., the use of agar for the inoculum boosts the ability of these organisms to establish infection in immunocompetent animals ([25]). The final inoculum ranged from 5.7 to 6.2 log10 CFU/rat for S. pneumoniae and 6.2 to 7.5 log10 CFU/rat for H. influenzae.
(§3) Solutions were freshly prepared each day.
(§4) One set of rats was euthanized at 1 h postinfection to establish the baseline bacterial burden at the time that dosing was initiated. All remaining animals were euthanized at 96 h postinfection. Euthanasia was achieved by carbon dioxide overdose, and infected tissues were excised aseptically and homogenized in 1 ml PBS using a laboratory blender (Stomacher 80; Seward Ltd., Worthing, West Sussex, UK). The lungs were removed whole and blotted to remove excess blood prior to processing. Abscesses were excised intact by removing all surrounding skin and tissue to ensure collection of the entire infected area along with the complete abscess itself. For enumeration of viable bacterial numbers, 10-fold serial dilutions were prepared in PBS and triplicate samples of 20 μl each were inoculated onto Trypticase soy agar supplemented with 5% sheep's blood (S. pneumoniae and S. aureus) or chocolate agar (H. influenzae) by a modified Miles-Misra technique ([27], [28]), using a Hamilton Microlab AT 2 Plus system. The colonies were counted following overnight incubation at 37°C, and the limit of detection was ≤1.7 log10 CFU/tissue.
(§5) The outcome measure for efficacy was the number of bacteria isolated from the infected tissues (number of log10 CFU per lungs or number of log10 CFU per abscess) at the conclusion of the study. Results are presented either as group means or as the change in the number of CFU from that at the baseline with associated standard errors of the means (SEM) for the difference. Statistical analysis was performed using the Student t test with a significance level of 0.05.

[4] = tested on: H. influenzae; assay: MIC by CLSI broth microdilution, H. influenzae isolates; format: cell-based, Haemophilus influenzae; design: key to Susceptibility category (superscript to MIC): R, resistant; S, susceptible; NS, nonsusceptible (resistance not defined); conditions: for MIC: Haemophilus influenzae
Method: as §1

[5] = tested on: S. pneumoniae; assay: MIC by CLSI broth microdilution, S. pneumoniae isolates; format: cell-based, Streptococcus pneumoniae; design: key to Susceptibility category (superscript to MIC): R, resistant; S, susceptible; NS, nonsusceptible (resistance not defined); conditions: for MIC: Streptococcus pneumoniae
Method: as §1

[6] = tested on: S. aureus; assay: Rat model of S. aureus abscess with recreated human exposure profiles; format: in vivo; conditions: recreated AZM 1,000/500-mg profile, all three (macrolide-resistant) S. aureus isolates
Method: Rats were also anesthetized as described above for establishment of the abscess infection model. A subcutaneous groin abscess was created by injecting 1 ml of the bacterial suspension in semisolid nutrient agar subcutaneously into the loose skin of the right groin area. The final inoculum for the S. aureus strains utilized ranged from 6.4 to 7.2 log10 CFU/rat.
as §3
as §4, with “For enumeration of viable bacterial numbers, 10-fold serial dilutions were prepared in PBS and triplicate samples of 20 μl each were inoculated onto Trypticase soy agar supplemented with 5% sheep's blood (S. pneumoniae and S. aureus) or chocolate agar (H. influenzae) by a modified Miles-Misra technique ([27], [28]), using a Hamilton Microlab AT 2 Plus system.” left out, “CFU/tissue. […]” for “CFU/tissue.”

[7] = tested on: H. influenzae; assay: Rat model of H. influenzae pneumonia with recreated human exposure profiles; format: in vivo; conditions: for Log10 reductions versus the levels at the baseline: 96 h
Method: as §2, §3, §4, §5

[8] = Blood versus plasma concentrations, rat; format: in vitro ADME; conditions: rat (data on file)
[9] = design: method as in PMID 24189245; conditions: healthy volunteers; cited from earlier work
[10] = Blood versus plasma concentrations, human; format: in vitro ADME; conditions: human (data on file)
[11] = Epithelial lining fluid penetration in infected rats; format: in vivo; conditions: rat, epithelial lining fluid (total drug) / plasma (free drug); infected rats (data on file); read-out: Ratio of the total drug epithelial lining fluid AUC to the free drug plasma AUC
[12] = susceptible S. pneumoniae strain, recreated human profiles, bacterial numbers reduced to below or close to the limit of detection

Row | SMILES | Susceptibility category (superscript to MIC) ([1]; S. aureus A-24) | Susceptibility category (superscript to MIC) ([1]; S. aureus PVL-2) | Susceptibility category (superscript to MIC) ([1]; S. aureus X32601) | MIC ([1]; S. aureus A-24) [µg/mL] | MIC ([1]; S. aureus PVL-2) [µg/mL] | MIC ([1]; S. aureus X32601) [µg/mL] | Reduction in bacterial burden compared with controls at baseline ([3]; 96 h) | Effect on bacterial burden [3, 12] | Susceptibility category (superscript to MIC) ([4]; H. influenzae 511343) | Susceptibility category (superscript to MIC) ([4]; H. influenzae 1302002H) | Susceptibility category (superscript to MIC) ([4]; H. influenzae H128) | MIC ([4]; H. influenzae 511343) [µg/mL] | MIC ([4]; H. influenzae 1302002H) [µg/mL] | MIC ([4]; H. influenzae H128) [µg/mL] | Susceptibility category (superscript to MIC) ([5]; S. pneumoniae ERY2) | Susceptibility category (superscript to MIC) ([5]; S. pneumoniae L11259) | Susceptibility category (superscript to MIC) ([5]; S. pneumoniae TPS3) | MIC ([5]; S. pneumoniae ERY2) [µg/mL] | MIC ([5]; S. pneumoniae L11259) [µg/mL] | MIC ([5]; S. pneumoniae TPS3) [µg/mL] | also measured
1 | CC[C@H]1OC(=O)[C@H](C)[C@@H](O[C@H]2C[C@@](C)(OC)[C@@H](O)[C@H](C)O2)[C@H](C)[C@@H](O[C@@H]2O[C@H](C)C[C@H](N(C)C)[C@H]2O)[C@](C)(O)C[C@@H](C)CN(C)[C@H](C)[C@@H](O)[C@]1(C)O [AZM, azithromycin] | R | R | R | > 64 | > 64 | > 64 | did not demonstrate any reduction in bacterial burden | highly effective | S | S | S | 4 (≈ 5.34 µM) | 2 (≈ 2.67 µM) | 0.5 (≈ 0.668 µM) | R | S | R | 16 (≈ 21.4 µM) | 0.03 (≈ 0.0401 µM) | 4 (≈ 5.34 µM) | AUC0–t Human ([2]; 1,000/500 mg oral steady-state profile, 24 h interval): 4.9 µg·h/mL; Cmax Human ([2]; 1,000/500 mg oral steady-state profile): 500 ng/mL; Effect on bacterial burden ([3]; second AZM-resistant S. pneumoniae isolate, recreated AZM 1,000/500 mg profile, 96 h): no effect; Efficacy [6]: ineffective; Log10 reductions versus the levels at the baseline ([7]; recreated AZM 1,000-mg loading then 500-mg profile once daily, two of three H. influenzae isolates): 1.2 log10 CFU/lungs and 1.4 log10 CFU/lungs; Efficacy ([7]; recreated AZM 1,000/500-mg profile, H. influenzae isolate with AZM MIC of 4 mg/liter): ineffective
2 | Cc1nc(NNC(=O)[C@H](CC2CCCC2)CN(O)C=O)c(F)c(N2CCN3CCOC[C@@H]3C2)n1 [GSK1322322] | – | – | – | 4 (≈ 8.34 µM) | 4 (≈ 8.34 µM) | 1 (≈ 2.09 µM) | – | – | – | – | – | 4 (≈ 8.34 µM) | 4 (≈ 8.34 µM) | 2 (≈ 4.17 µM) | – | – | – | 0.5 (≈ 1.04 µM) | 2 (≈ 4.17 µM) | 0.5 (≈ 1.04 µM) | Blood and plasma concentrations compared [8]: similar; Ratio of the total drug epithelial lining fluid AUC to the free drug plasma AUC [9]: 3.5; Blood and plasma concentrations compared [10]: similar; Kp [11]: 3.3
3 | C[C@H]1COc2c(N3CCN(C)CC3)c(F)cc3c(=O)c(C(=O)O)cn1c23 [LVX, levofloxacin] | – | S | R | – | 0.25 (≈ 0.692 µM) | 32 (≈ 88.6 µM) | did not demonstrate any reduction in bacterial burden | highly effective | NS | S | S | 4 (≈ 11.1 µM) | 0.06 (≈ 0.166 µM) | 0.016 (≈ 0.0443 µM) | S | S | R | 1 (≈ 2.77 µM) | 1 (≈ 2.77 µM) | 32 (≈ 88.6 µM) | AUC0–t Human ([2]; 500 mg single oral dose, 24 h interval): 40 µg·h/mL; Cmax Human ([2]; 500 mg single oral dose): 4300 ng/mL; Log10 reductions versus the levels at the baseline ([7]; recreated 500-mg LVX profile once daily, two susceptible H. influenzae isolates): 4.2 log10 CFU/lungs and 4.5 log10 CFU/lungs; Efficacy ([7]; recreated 500-mg LVX profile, nonsusceptible H. influenzae strain): ineffective
4 | CC(=O)NC[C@H]1CN(c2ccc(N3CCOCC3)c(F)c2)C(=O)O1 [LZD, linezolid] | S | S | S | 4 (≈ 11.9 µM) | 2 (≈ 5.93 µM) | 1 (≈ 2.96 µM) | – | – | – | – | – | – | – | – | – | – | – | – | – | – | AUC0–t Human ([2]; 625 mg oral steady state, 12 h interval): 147 µg·h/mL; AUC from 0 to 12 h postdosing ([2]; LZD 625 mg oral): 147 µg·h/mL; AUC from 0 to 12 h postdosing ([2]; LZD 600-mg approved oral dose): 138 µg·h/mL
5 | Cc1onc(-c2ccccc2)c1C(=O)N[C@@H]1C(=O)N2[C@@H]1SC(C)(C)[C@@H]2C(=O)O [Oxacillin] | – | R | R | – | 32 (≈ 79.7 µM) | > 64 | – | – | – | – | – | – | – | – | – | – | – | – | – | – | –

— paper PMC5655044, “Reducing Antibacterial Development Risk for GSK1322322 by Exploring Potential Human Dose Regimens in Nonclinical Efficacy Studies Using Immunocompetent Rats” (Antimicrobial Agents and Chemotherapy, 2017)
